Our source for the IC50 and EC50 values is patent publication US10738041B2, “Ferroportin inhibitors” (Vifor (International) AG, priority 2015, dated 2020).

In one assay the target is T1, ferroportin (Fpn) (Mus musculus, UniProt Q9JHI9).
T1 construct: host or cells: J774 mouse macrophage cell line, Fe(III)-NTA induced
T1 sequence (Q9JHI9 1-570): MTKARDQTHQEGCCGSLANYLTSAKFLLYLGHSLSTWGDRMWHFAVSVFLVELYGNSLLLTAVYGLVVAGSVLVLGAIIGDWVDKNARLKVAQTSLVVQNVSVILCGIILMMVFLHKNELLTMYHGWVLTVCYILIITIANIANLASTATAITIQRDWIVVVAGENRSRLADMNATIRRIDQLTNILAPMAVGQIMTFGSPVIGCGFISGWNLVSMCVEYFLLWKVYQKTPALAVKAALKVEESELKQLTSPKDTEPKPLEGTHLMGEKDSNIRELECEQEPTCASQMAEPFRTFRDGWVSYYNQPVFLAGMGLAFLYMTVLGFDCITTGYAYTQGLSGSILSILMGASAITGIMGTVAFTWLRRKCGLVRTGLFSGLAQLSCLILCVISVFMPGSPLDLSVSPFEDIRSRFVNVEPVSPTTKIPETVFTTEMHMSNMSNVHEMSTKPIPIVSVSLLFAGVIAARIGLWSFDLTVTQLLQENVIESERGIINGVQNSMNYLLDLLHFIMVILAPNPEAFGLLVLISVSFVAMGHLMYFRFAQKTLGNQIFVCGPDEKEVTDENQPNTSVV
Description: Hepcidin Internalization Assay (J774). In kind it is cell-based. As to conditions: average of multiple measurements; inhibition of TMR-hepcidin (25 nM) internalization into J774 cells; read-out: J774 IC50. An outline of the steps:
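Mouse J774 macrophages, loaded overnight with 200 μM Fe(III)NTA, incubated 2 h at 37 °C with test compounds and TMR-labeled hepcidin. Cell-associated TMR fluorescence, a proxy for hepcidin binding to Fpn and internalization, quantified by automated imaging with Hoechst nuclear counterstain after fixation; IC50 from log(inhibitor) vs. response fit, triplicates.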

A further assay addresses T2, human Fpn (Homo sapiens, UniProt Q9NP59).
T2 construct: FLAG (C); made in house; host or cells: Pichia pastoris
T2 sequence (Q9NP59 1-571): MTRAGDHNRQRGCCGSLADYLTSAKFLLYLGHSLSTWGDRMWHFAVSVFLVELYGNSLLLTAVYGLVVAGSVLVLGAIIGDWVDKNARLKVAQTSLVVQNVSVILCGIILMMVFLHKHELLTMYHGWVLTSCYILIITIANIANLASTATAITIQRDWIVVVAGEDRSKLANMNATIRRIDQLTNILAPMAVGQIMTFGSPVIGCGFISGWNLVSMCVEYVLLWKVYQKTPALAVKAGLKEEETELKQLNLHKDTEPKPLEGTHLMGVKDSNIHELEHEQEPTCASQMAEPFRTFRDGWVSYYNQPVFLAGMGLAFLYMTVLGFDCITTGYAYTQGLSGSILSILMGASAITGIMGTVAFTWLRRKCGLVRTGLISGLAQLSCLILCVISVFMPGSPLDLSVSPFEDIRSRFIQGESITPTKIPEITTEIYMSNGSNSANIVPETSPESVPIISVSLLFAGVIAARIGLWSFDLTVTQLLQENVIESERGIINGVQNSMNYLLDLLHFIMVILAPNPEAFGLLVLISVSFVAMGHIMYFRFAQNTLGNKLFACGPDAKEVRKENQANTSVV
Briefly: Biophysical Ferroportin-Hepcidin Binding Assay (fluorescence polarization). The settings on record: average of multiple measurements; 1 μM human Fpn, 20 nM TMR-hepcidin; read-out: FP IC50. The method, then:
This biophysical assay was developed to confirm inhibition of hepcidin binding to ferroportin (Fpn) more directly. Incubation of TMR-hepcidin with purified human Fpn isolated from Pichia pastoris yeast cells expressing human Fpn with a C-terminal FLAG affinity tag (Bonaccorsi di Patti, 2014) leads to increased fluorescence polarization (FP) of the TMR-hepcidin ligand. Small molecular weight Fpn inhibitors were tested for inhibition of binding of TMR-hepcidin to Fpn, as detected by dose-dependent decrease of the TMR FP signal, as described in detail below.
8 μl of serial dilutions of test compounds were added in duplicates to reach final Fpn and TMR-hepcidin concentrations of 1 μM and 20 nM, respectively. Plates were incubated for 90 minutes at room temperature and parallel (S) and perpendicular (P) fluorescence was measured in a Synergy H1 fluorescence reader (BioTek). FP values were calculated in mP according to the following formula.
Background: In fluorescence polarisation assays a small probe gives low polarisation when free and higher when bound to something large.

For another assay, the target named is T3, human Fpn-GFP fusion (Homo sapiens, UniProt Q9NP59).
T3 construct: expressed in transfected cells; host or cells: HEK-293 cell line #354 (derivative of HEK-293 Tet-ON Advanced, Clontech)
T3 sequence (Q9NP59 1-571): T2 sequence (Q9NP59 1-571)
Briefly: Inhibition of ferroportin mediated iron export activity in an iron response assay (BLAzer). It counts as cell-based. As to conditions: average of multiple measurements; HEK-293 cell line #354; read-out: BLAzer EC50. The text has this:
Intracellular iron levels are indirectly measured in this assay by monitoring the activity of a beta-lactamase (BLA) reporter gene fused to the human ferritin promoter and the associated iron regulatory element (IRE) contained within the 5′ untranslated region of the ferritin mRNA. Expression of ferroportin (Fpn) in such a cell line leads to iron efflux and lower iron levels as reflected by lower activity of the reporter gene. On the other hand, inhibition of Fpn-mediated iron efflux results in elevated cellular iron levels which is detected as increased reporter gene activity. Small molecular weight Fpn inhibitor compounds were tested for dose-dependent effects in this in vitro iron response assay as described below.
The HEK-293 cell line #354 was generated by stable integration of (i) a human Fpn-GFP fusion construct inserted in a derivative of the doxycycline-inducible pTRE-Tight-BI plasmid (Clontech, Cat. 631068) and (ii) a human ferritin promoter-BLA reporter gene into a derivative of the HEK-293 Tet-ON Advanced cell line (Clontech). […] After overnight incubation, 10 μl/well of dilution series of the test compounds were added in quadruplicates and plates were further incubated overnight at 37° C. with 5% CQ. Cells were washed 3 times with HBSS leaving 25 μl per well. BLA activity was detected by adding 5 μl/well of the GeneBlazer reagent CCF4-AM (Invitrogen, Cat. K1085) to the cells. After incubation of the plates in the dark at 18° C. for 60 min., blue and green fluorescence signals were measured in a Safre2 fluorescence plate reader (Tecan) with excitation at 410 nm and emissions at 458 nm (blue) and 522 nm (green). The ratio of blue/green fluorescence as a measure for BLA activity was calculated and EC50 values were determined with the calculated blue/green fluorescence ratios as described for the hepcidin internalization assay.

In general, IC50 refers to the midpoint of a concentration-inhibition curve. In general, EC50 refers to the concentration that produces a half-maximal response. Take `Cn1ccnc1CNCCc1nc(C(=O)NCc2ccccc2)cs1` [Example 2]: the IC50 on ferroportin (Fpn) was 6300 nM; at human Fpn, 10600 nM. For the same compound, on human Fpn-GFP fusion, the EC50 came out at 1640 nM.
Taken in the same sequence, the figures for `O=C(NCC1CCCCC1)c1csc(CCNCc2nc3ccccc3[nH]2)n1` [Example 13] were 1700 nM, 530 nM and 27000 nM.
Taken in the same sequence, the figures for `O=C(c1csc(CCNCc2nc3ccccc3[nH]2)n1)N1CCc2ccccc2C1` [Example 15] were 1600 nM, 1470 nM and 2220 nM.
On to `O=C(NCc1ccccc1)c1csc(CCNCc2cc3ccccc3[nH]2)n1` [Example 24], for which the IC50 at ferroportin (Fpn) was determined as 2800 nM. Moreover, the EC50 on human Fpn-GFP fusion came out at 12800 nM.
Consider `O=C(NCc1ccccc1)c1csc(CCNCCc2nc3ccccc3[nH]2)n1` [Example 29], for which the IC50 at ferroportin (Fpn) is 510 nM; on human Fpn, 136 nM. For the same compound, the EC50 on human Fpn-GFP fusion was 2530 nM.
In the same order, the values of `Cc1ccc2[nH]c(CNCCc3nc(C(=O)NCc4ccccc4)cs3)nc2c1` [Example 32] are 2600 nM, 1210 nM and 1870 nM.
Taken in the same sequence, the figures for `O=C(NCc1ncccc1C(F)(F)F)c1csc(CCNCc2nc3ccccc3[nH]2)n1` [Example 37] were 810 nM, 1900 nM and 7920 nM.
In the same order, the values of `O=C(NC1CCCc2cccnc21)c1csc(CCNCc2nc3ccccc3[nH]2)n1` (stereo not shown) [Example 38] are 30 nM, 233 nM and 2980 nM.
Take `Cc1cccc(CNC(=O)c2csc(CCNCc3nc4ccccc4[nH]3)n2)n1` [Example 42]: the values for the IC50 at ferroportin (Fpn) and at human Fpn were 600 nM and 2170 nM, respectively. For the same compound, the EC50 at human Fpn-GFP fusion amounted to 36300 nM.
Regarding `O=C(NCc1ccc(F)cn1)c1csc(CCNCc2nc3ccccc3[nH]2)n1` [Example 43], the figures for the IC50 on ferroportin (Fpn) and on human Fpn were 250 nM and 1520 nM, respectively. Besides, the EC50 at human Fpn-GFP fusion stood at 31000 nM.
In the same order, the values of `O=C(NCc1ccncn1)c1csc(CCNCc2nc3ccccc3[nH]2)n1` [Example 44] are 1330 nM, 5340 nM and 18300 nM.
For `O=C(NCc1cnccn1)c1csc(CCNCc2nc3ccccc3[nH]2)n1` [Example 46], the figures for the IC50 at ferroportin (Fpn) and on human Fpn were 590 nM and 4340 nM, respectively. In addition, the EC50 on human Fpn-GFP fusion is 38700 nM.
As for `O=C(NCc1ccccc1)c1csc(CCNCc2nc3cc(C(F)(F)F)ccc3[nH]2)n1` [Example 51], the figures for the IC50 at ferroportin (Fpn) and at human Fpn were 360 nM and 530 nM, respectively. Moreover, the EC50 at human Fpn-GFP fusion stood at 4470 nM.
In the case of `O=C(NCc1ccccc1)c1csc(CCNCc2nc3cc(Cl)ccc3[nH]2)n1` [Example 52], the IC50 amounted to 340 nM on ferroportin (Fpn) and 1360 nM on human Fpn. Further, the EC50 on human Fpn-GFP fusion worked out at 2080 nM.
In the same order, the values of `N#Cc1ccc(CNC(=O)c2csc(CCNCc3nc4ccccc4[nH]3)n2)cn1` [Example 56] are 410 nM, 566 nM and 10400 nM.
In the case of `Cc1cnc(CNC(=O)c2csc(CCNCc3nc4ccccc4[nH]3)n2)c(C)c1` [Example 57], the IC50 was found to be 100 nM on ferroportin (Fpn) and 430 nM at human Fpn. For the same compound, on human Fpn-GFP fusion, the EC50 is 2110 nM.
Taken in the same sequence, the figures for `COc1cccnc1CNC(=O)c1csc(CCNCc2nc3ccccc3[nH]2)n1` [Example 59] were 50 nM, 270 nM and 1380 nM.
In the same order, the values of `O=C(NCc1ncccn1)c1csc(CCNCc2nc3ccccc3[nH]2)n1` [Example 61] are 560 nM, 1690 nM and 37500 nM.
With `Cn1ccnc1CNC(=O)c1csc(CCNCc2nc3ccccc3[nH]2)n1` [Example 64], the IC50 worked out at 130 nM at ferroportin (Fpn) and 1240 nM on human Fpn. Moreover, the EC50 on human Fpn-GFP fusion is 4530 nM.
Take `O=C(NCc1ccccc1F)c1csc(CCNCc2nc3ccccc3[nH]2)n1` [Example 65]: the 50% inhibitory concentration (IC50) was determined as 850 nM on ferroportin (Fpn) and 950 nM at human Fpn. For the same compound, the EC50 at human Fpn-GFP fusion is 32300 nM.
Taken in the same sequence, the figures for `O=C(NCc1ccccc1)c1cccc(CCNCc2nc3ccccc3[nH]2)c1` [Example 67] were 530 nM, 3400 nM and 33500 nM.
Taken in the same sequence, the figures for `CN1CCN(c2ccccc2CNC(=O)c2csc(CCNCc3nc4ccccc4[nH]3)n2)CC1` [Example 68] were 2500 nM, 4060 nM and 10400 nM.
Taken in the same sequence, the figures for `N#Cc1ccccc1CNC(=O)c1csc(CCNCc2nc3ccccc3[nH]2)n1` [Example 71] were 240 nM, 508 nM and 1790 nM.
On to `N#Cc1ccc2[nH]c(CCNCCc3nc(C(=O)NCc4ncccc4F)co3)nc2c1` [Example 265], for which the IC50 on ferroportin (Fpn) amounted to 70 nM. At human Fpn-GFP fusion, the EC50 stood at 2000 nM.
Take `O=C(CC(=O)NCc1ncccc1F)NCCNCc1nc2ccccc2[nH]1` [compound 149]: the IC50 was 6250 nM at ferroportin (Fpn) and 17000 nM at human Fpn.
In the same order, the values of `O=C(CC(=O)NCc1ncccc1F)NCCNCCc1nc2ccccc2[nH]1` [compound 168] are 884 nM and 1360 nM.
Taken in the same sequence, the figures for `O=C(CCNCc1nc2ccccc2[nH]1)NCC(=O)NCc1ncccc1F` [compound 172] were 3930 nM and 3400 nM.
Taken in the same sequence, the figures for `O=C(NCc1ncccc1F)[C@@H]1CCN(CCNCc2nc3ccccc3[nH]2)C1` [compound 204] were 3300 nM and 1630 nM.
Turning to `O=C(NCc1ncccc1F)c1ccnc(CCNCc2nc3ccccc3[nH]2)c1` [compound 222], the IC50 stood at 3400 nM on ferroportin (Fpn) and 808 nM on human Fpn.
Turning to `O=C(NCc1ncccc1F)c1cncc(CCNCCc2nc3ccccc3[nH]2)c1` [compound 229], the IC50 at human Fpn is 43 nM. The EC50 at human Fpn-GFP fusion came to 4060 nM.
